Reference: patent US10351575B2, “Bicyclic urea, thiourea, guanidine and cyanoguanidine compounds useful for the treatment of pain” (Array BioPharma Inc., priority 2012, dated 2019)

What was measured:
Assay in all cases: KinaseProfiler off-target kinase profiling
Type in all cases: biochemical
Details in all cases: 10 μM, ATP near Km
[1] = biological target: AKT1 (Homo sapiens (Human), UniProt P31749)
Procedure, shortened: (§1)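 Near-Km ATP, 10 μM inhibitor, duplicate wells; output is percent of uninhibited control, averaged.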

[2] = biological target: ALK (Homo sapiens (Human), UniProt Q9UM73)
Procedure, shortened: as §1

[3] = biological target: AMPK(A1/B1/G1) (Homo sapiens (Human), UniProt Q13131)
Procedure, shortened: as §1

[4] = biological target: BTK (Homo sapiens (Human), UniProt Q06187)
Procedure, shortened: as §1

[5] = biological target: CAMK2d (Homo sapiens (Human), UniProt Q13557)
Procedure, shortened: as §1

[6] = biological target: CAMK2g (Homo sapiens (Human), UniProt Q13555)
Procedure, shortened: as §1

[7] = biological target: CDK9/cyclinT1 (Homo sapiens (Human), UniProt P50750)
Procedure, shortened: as §1

[8] = biological target: CLK3 (Homo sapiens (Human), UniProt P49761)
Procedure, shortened: as §1

[9] = biological target: DAPK1 (Homo sapiens (Human), UniProt P53355)
Procedure, shortened: as §1

[10] = biological target: DCAMKL2 (Homo sapiens (Human), UniProt Q8N568)
Procedure, shortened: as §1

[11] = biological target: DMPK (Homo sapiens (Human), UniProt Q09013)
Procedure, shortened: as §1

[12] = biological target: EGFR (Homo sapiens (Human), UniProt P00533)
Procedure, shortened: as §1

[13] = biological target: ERK1 (Homo sapiens (Human), UniProt P27361)
Procedure, shortened: as §1

[14] = biological target: EphB4 (Homo sapiens (Human), UniProt P54760)
Procedure, shortened: as §1

[15] = biological target: ErbB4 (Homo sapiens (Human), UniProt Q15303)
Procedure, shortened: as §1

[16] = biological target: FAK (Homo sapiens (Human), UniProt Q05397)
Procedure, shortened: as §1

[17] = biological target: FAK2 (Homo sapiens (Human), UniProt Q14289)
Procedure, shortened: as §1

[18] = biological target: FGFR1 (Homo sapiens (Human), UniProt P11362)
Procedure, shortened: as §1

[19] = biological target: FGFR4 (Homo sapiens (Human), UniProt P22455)
Procedure, shortened: as §1

[20] = biological target: Fer (Homo sapiens (Human), UniProt P16591)
Procedure, shortened: as §1

[21] = biological target: Fgr (Homo sapiens (Human), UniProt P09769)
Procedure, shortened: as §1

[22] = biological target: Flt1 (Homo sapiens (Human), UniProt P17948)
Procedure, shortened: as §1

[23] = biological target: Fyn (Homo sapiens (Human), UniProt P06241)
Procedure, shortened: as §1

[24] = biological target: MRCKalpha (Homo sapiens (Human), UniProt Q5VT25)
Procedure, shortened: as §1

[25] = biological target: NEK11 (Homo sapiens (Human), UniProt Q8NG66)
Procedure, shortened: as §1

[26] = biological target: NEK3 (Homo sapiens (Human), UniProt P51956)
Procedure, shortened: as §1

[27] = biological target: NEK7 (Homo sapiens (Human), UniProt Q8TDX7)
Procedure, shortened: as §1

[28] = biological target: PAK4 (Homo sapiens (Human), UniProt O96013)
Procedure, shortened: as §1

[29] = biological target: PAK6 (Homo sapiens (Human), UniProt Q9NQU5)
Procedure, shortened: as §1

[30] = biological target: PKD1 (Homo sapiens (Human), UniProt Q15139)
Procedure, shortened: as §1

[31] = biological target: Plk2 (Homo sapiens (Human), UniProt Q9NYY3)
Procedure, shortened: as §1

[32] = biological target: PrKX (Homo sapiens (Human), UniProt P51817)
Procedure, shortened: as §1

[33] = biological target: SGK2 (Homo sapiens (Human), UniProt Q9HBY8)
Procedure, shortened: as §1

[34] = biological target: SRC (Homo sapiens (Human), UniProt P12931)
Procedure, shortened: as §1

[35] = biological target: SRPK1 (Homo sapiens (Human), UniProt Q96SB4)
Procedure, shortened: as §1

[36] = biological target: TBK1 (Homo sapiens (Human), UniProt Q9UHD2)
Procedure, shortened: as §1

[37] = biological target: TLK2 (Homo sapiens (Human), UniProt Q86UE8)
Procedure, shortened: as §1

[38] = biological target: Txk (Homo sapiens (Human), UniProt P42681)
Procedure, shortened: as §1

[39] = biological target: p38delta (Homo sapiens (Human), UniProt O15264)
Procedure, shortened: as §1

Sequence of Plk2 (Q9NYY3 whole entry): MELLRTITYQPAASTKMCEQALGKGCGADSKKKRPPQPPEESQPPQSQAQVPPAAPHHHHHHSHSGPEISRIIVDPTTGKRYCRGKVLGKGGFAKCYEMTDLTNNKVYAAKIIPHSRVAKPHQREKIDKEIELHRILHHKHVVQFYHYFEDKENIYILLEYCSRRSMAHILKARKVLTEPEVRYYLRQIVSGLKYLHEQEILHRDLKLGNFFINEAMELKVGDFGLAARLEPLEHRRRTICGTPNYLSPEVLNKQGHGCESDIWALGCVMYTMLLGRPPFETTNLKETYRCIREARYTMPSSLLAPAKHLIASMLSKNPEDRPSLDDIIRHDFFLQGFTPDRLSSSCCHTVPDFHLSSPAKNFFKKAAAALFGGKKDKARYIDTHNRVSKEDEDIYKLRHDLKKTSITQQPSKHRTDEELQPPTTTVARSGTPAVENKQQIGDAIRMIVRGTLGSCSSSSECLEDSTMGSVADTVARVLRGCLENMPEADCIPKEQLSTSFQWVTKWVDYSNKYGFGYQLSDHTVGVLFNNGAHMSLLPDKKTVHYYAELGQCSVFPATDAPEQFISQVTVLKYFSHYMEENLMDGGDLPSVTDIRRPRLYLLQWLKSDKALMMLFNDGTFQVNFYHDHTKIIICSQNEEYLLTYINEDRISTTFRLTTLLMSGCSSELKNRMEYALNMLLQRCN
Sequence of FAK (Q05397 whole entry): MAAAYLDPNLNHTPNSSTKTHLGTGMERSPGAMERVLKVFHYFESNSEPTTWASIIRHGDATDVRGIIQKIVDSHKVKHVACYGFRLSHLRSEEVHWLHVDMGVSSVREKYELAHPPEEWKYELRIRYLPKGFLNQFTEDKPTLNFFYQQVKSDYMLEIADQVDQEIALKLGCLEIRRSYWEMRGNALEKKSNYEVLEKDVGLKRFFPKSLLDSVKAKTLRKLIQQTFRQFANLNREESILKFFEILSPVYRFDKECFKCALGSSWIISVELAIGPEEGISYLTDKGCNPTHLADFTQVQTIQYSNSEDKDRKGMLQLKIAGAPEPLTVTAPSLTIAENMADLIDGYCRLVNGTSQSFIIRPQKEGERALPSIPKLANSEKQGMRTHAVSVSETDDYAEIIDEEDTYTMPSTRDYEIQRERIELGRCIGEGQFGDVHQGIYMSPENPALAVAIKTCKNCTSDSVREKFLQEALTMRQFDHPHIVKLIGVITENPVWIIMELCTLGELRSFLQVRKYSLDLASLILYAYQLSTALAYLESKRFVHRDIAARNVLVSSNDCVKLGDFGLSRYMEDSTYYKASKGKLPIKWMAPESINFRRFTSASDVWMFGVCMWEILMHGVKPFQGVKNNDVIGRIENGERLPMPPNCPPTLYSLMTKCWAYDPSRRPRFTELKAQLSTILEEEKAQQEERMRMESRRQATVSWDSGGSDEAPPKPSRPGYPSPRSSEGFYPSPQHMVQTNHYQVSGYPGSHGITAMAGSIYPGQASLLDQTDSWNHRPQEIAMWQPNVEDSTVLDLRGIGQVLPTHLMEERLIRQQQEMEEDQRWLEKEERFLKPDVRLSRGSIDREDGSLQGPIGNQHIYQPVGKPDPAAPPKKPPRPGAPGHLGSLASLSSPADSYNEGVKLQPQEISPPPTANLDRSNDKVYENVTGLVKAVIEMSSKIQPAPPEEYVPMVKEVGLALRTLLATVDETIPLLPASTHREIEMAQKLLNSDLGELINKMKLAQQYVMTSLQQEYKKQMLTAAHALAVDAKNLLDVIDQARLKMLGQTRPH
Sequence of CAMK2d (Q13557 whole entry): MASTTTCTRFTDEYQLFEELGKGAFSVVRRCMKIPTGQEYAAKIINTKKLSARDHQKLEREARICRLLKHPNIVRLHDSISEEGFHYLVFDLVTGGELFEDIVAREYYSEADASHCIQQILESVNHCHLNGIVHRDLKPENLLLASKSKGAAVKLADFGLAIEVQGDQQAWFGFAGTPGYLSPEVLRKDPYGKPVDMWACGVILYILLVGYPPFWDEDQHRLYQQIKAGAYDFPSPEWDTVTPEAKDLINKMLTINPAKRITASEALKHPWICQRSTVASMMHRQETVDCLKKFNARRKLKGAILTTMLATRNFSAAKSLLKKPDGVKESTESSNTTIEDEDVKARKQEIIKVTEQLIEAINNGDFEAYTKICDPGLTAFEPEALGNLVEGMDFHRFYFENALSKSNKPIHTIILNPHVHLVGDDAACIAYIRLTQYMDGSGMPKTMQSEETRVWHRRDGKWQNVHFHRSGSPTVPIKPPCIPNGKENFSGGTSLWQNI
Sequence of SGK2 (Q9HBY8 whole entry): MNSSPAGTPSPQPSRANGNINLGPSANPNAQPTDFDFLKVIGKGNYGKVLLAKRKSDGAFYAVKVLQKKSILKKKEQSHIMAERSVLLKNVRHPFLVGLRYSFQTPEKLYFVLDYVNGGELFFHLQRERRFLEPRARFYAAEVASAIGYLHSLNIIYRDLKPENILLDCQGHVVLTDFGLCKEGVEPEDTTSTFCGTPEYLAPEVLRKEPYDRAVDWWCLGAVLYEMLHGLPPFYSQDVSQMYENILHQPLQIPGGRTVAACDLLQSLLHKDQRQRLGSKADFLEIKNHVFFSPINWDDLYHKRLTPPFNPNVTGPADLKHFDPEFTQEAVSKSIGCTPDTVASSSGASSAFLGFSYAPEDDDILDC
Sequence of DMPK (Q09013 whole entry): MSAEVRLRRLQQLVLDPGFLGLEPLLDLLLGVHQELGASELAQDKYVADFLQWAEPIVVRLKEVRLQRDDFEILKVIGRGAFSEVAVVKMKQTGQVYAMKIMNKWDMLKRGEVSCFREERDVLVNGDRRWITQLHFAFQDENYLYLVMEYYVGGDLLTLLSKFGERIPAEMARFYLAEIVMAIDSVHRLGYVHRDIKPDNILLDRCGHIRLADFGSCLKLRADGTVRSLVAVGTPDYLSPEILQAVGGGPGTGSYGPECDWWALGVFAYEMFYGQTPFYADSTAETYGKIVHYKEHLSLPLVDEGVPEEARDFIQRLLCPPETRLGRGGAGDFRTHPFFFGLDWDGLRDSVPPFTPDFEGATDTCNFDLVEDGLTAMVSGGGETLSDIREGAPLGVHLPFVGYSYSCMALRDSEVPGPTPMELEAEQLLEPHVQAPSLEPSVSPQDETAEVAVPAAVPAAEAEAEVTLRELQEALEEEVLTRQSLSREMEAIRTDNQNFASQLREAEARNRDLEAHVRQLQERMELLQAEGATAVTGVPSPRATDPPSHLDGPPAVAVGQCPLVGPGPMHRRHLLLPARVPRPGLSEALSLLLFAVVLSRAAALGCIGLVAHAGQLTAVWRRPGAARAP
Sequence of EGFR (P00533 25-1210): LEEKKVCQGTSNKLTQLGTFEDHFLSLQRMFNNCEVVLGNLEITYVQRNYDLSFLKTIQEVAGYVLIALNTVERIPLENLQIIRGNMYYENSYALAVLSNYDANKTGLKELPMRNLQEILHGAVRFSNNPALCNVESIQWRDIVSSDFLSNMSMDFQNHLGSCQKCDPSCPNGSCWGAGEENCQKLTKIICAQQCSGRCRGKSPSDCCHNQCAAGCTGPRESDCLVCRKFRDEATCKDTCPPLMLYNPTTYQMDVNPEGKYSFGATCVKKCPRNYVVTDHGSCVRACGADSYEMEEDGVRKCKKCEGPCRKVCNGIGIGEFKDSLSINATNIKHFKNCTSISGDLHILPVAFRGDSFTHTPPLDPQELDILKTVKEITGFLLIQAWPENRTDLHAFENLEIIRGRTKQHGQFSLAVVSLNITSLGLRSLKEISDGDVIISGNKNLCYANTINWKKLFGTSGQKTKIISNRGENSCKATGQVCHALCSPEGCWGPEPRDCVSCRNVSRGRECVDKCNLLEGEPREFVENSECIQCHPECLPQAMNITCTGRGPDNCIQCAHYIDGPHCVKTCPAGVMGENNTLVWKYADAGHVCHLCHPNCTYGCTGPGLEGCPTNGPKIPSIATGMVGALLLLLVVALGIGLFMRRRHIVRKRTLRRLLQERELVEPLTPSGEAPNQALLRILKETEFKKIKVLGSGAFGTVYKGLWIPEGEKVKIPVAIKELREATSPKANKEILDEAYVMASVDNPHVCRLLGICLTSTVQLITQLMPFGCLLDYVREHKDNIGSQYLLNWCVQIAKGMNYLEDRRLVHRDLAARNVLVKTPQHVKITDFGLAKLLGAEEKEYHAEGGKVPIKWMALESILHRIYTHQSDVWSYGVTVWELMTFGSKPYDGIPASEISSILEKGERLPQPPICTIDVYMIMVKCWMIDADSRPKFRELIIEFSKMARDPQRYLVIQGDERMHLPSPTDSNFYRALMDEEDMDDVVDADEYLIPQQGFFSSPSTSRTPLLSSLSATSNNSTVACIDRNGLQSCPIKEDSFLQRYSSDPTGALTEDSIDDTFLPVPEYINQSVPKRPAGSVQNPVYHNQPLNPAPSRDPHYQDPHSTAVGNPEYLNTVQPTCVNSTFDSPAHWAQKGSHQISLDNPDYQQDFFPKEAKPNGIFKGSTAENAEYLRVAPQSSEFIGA
Sequence of SRPK1 (Q96SB4 whole entry): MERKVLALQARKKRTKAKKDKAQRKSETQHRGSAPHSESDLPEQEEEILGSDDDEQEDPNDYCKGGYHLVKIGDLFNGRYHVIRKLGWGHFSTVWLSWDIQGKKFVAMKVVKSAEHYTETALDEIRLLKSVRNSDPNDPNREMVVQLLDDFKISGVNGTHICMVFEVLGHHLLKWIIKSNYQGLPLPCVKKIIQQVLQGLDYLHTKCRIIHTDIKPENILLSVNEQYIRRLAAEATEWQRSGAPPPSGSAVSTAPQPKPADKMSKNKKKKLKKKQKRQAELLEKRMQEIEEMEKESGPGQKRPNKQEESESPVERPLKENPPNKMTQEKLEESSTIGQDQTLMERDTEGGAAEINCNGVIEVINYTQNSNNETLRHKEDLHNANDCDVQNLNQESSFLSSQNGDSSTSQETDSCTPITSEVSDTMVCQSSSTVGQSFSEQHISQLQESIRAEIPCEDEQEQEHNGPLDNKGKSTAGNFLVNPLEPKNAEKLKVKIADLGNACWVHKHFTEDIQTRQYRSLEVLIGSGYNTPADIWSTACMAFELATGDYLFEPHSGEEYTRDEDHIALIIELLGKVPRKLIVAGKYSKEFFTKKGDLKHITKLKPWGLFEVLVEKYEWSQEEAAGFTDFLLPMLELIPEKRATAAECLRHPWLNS

| SMILES | Avg. POC [1] [POC] | Avg. POC [2] [POC] | Avg. POC [3] [POC] | Avg. POC [4] [POC] | Avg. POC [5] [POC] | Avg. POC [6] [POC] | Avg. POC [7] [POC] | Avg. POC [8] [POC] | Avg. POC [9] [POC] | Avg. POC [10] [POC] | Avg. POC [11] [POC] | Avg. POC [12] [POC] | Avg. POC [13] [POC] | Avg. POC [14] [POC] | Avg. POC [15] [POC] | Avg. POC [16] [POC] | Avg. POC [17] [POC] | Avg. POC [18] [POC] | Avg. POC [19] [POC] | Avg. POC [20] [POC] | other results |
| --- | --- | --- | --- | --- | --- | --- | --- | --- | --- | --- | --- | --- | --- | --- | --- | --- | --- | --- | --- | --- | --- |
| Cc1c(-c2cnn(C)c2)nn(-c2ccccc2)c1NC(=O)N[C@H]1CCCc2ccccc21 [Example 2, (S)-1-(1′,4-dimethyl-1-phenyl-1H,1′H-3,4′-bipyrazol-5-yl)-3-(1,2,3,4-tetrahydronaphthalen-1-yl)urea] | 130.5 | 111 | 152.5 | 111.5 | 119 | 107.5 | 127 | 108 | 108.5 | 157.5 | 105 | 114 | 120.5 | 118.5 | 148 | 116.5 | 120 | 114 | 124 | 110.5 | Avg. POC [21]: 131 POC; Avg. POC [22]: 105.5 POC; Avg. POC [23]: 123.5 POC; Avg. POC [24]: 127.5 POC; Avg. POC [25]: 108.5 POC; Avg. POC [26]: 105 POC; Avg. POC [27]: 94.5 POC; Avg. POC [28]: 95 POC; Avg. POC [29]: 119.5 POC; Avg. POC [30]: 110.5 POC; Avg. POC [31]: 102 POC; Avg. POC [32]: 152 POC; Avg. POC [33]: 166.5 POC; Avg. POC [34]: 99.5 POC; Avg. POC [35]: 122 POC; Avg. POC [36]: 116 POC; Avg. POC [37]: 100 POC; Avg. POC [38]: 125 POC; Avg. POC [39]: 96.5 POC |
| Cc1c(-c2cnn(C)c2)nn(-c2ccccc2)c1NC(=O)NC1CCOc2cc(F)ccc21 (stereo not drawn) [Example 12, 1-(1′,4-dimethyl-1-phenyl-1H,1′H-[3,4′-bipyrazol]-5-yl)-3-(7-fluorochroman-4-yl)urea] | 105.5 | 103 | 117 | 127 | 110.5 | 107.5 | 106 | 100 | 136 | 169 | 104 | 109.5 | 105 | 121 | 122 | 104 | 111 | 90 | 119 | 100.5 | Avg. POC [21]: 114.5 POC; Avg. POC [22]: 93 POC; Avg. POC [23]: 92.5 POC; Avg. POC [24]: 139 POC; Avg. POC [25]: 84.5 POC; Avg. POC [26]: 102 POC; Avg. POC [27]: 133.5 POC; Avg. POC [28]: 103 POC; Avg. POC [29]: 139 POC; Avg. POC [30]: 115 POC; Avg. POC [31]: 103.5 POC; Avg. POC [32]: 118.5 POC; Avg. POC [33]: 148 POC; Avg. POC [34]: 97 POC; Avg. POC [35]: 97.5 POC; Avg. POC [36]: 103 POC; Avg. POC [37]: 98 POC; Avg. POC [38]: 139 POC; Avg. POC [39]: 99.5 POC |
| Cc1c(-c2ccc(=O)n(C)c2)nn(-c2ccccc2)c1NC(=O)NC1CN(CC(F)(F)F)Cc2ccccc21 (stereo not drawn) [Example 26, 1-(4-methyl-3-(1-methyl-6-oxo-1,6-dihydropyridin-3-yl)-1-phenyl-1H-pyrazol-5-yl)-3-(2-(2,2,2-trifluoroethyl)-1,2,3,4-tetrahydroisoquinolin-4-yl)urea] | 100 | 117 | 122.5 | 139 | 99.5 | 101 | 112.5 | 106 | 135 | 135 | 106 | 108 | 109.5 | 115 | 115.5 | 105 | 104.5 | 104.5 | 123 | 98 | Avg. POC [21]: 114.5 POC; Avg. POC [22]: 104 POC; Avg. POC [23]: 115.5 POC; Avg. POC [24]: 124.5 POC; Avg. POC [25]: 113.5 POC; Avg. POC [26]: 105 POC; Avg. POC [27]: 126 POC; Avg. POC [28]: 100.5 POC; Avg. POC [29]: 116.5 POC; Avg. POC [30]: 113.5 POC; Avg. POC [31]: 101.5 POC; Avg. POC [32]: 109 POC; Avg. POC [33]: 123.5 POC; Avg. POC [34]: 104.5 POC; Avg. POC [35]: 102.5 POC; Avg. POC [36]: 113 POC; Avg. POC [37]: 97 POC; Avg. POC [38]: 119 POC; Avg. POC [39]: 102 POC |
